# Experimental data reported in patent publication US20120213727A1, “THERAPEUTIC USES OF OLIGOMERIC AND POLYMERIC MONOTERPENES” (REGENERA PHARMA LTD., priority 2009, published 2012).
# Test system: ARPE-19 cells
# Assay: Neuronal-like differentiation in ARPE-19 retinal pigment epithelial cell cultures
# Type: cell-based, human
# Settings: 72 hrs incubation, optical microscope
# Description: ARPE-19 cells (obtained from the American Type Culture Collection, ATCC) were plated in flat bottom 96 well tissue culture microplates (Costar) at a concentration of 2-5×10^3 cells per well (1-2.5×10^4 cells/mL) in a growth medium consisting of DMEM:Ham F-12, 1:1, supplemented with 10% Fetal Bovine Serum, […] glutamine, 100 units/mL penicillin and 100 μg/mL streptomycin. The cells were allowed to adhere to the plate surfaces overnight prior to treatment with polymeric monoterpene.
# Each type of polymeric monoterpene was synthesized to provide a 10% solution in grape seed oil, olive oil, Mygliol 810 or Mygliol 812. The preparations were added to the cultures at volumes of 0.5 μl, 2 μl, 5 μl and 20 μl. […]
# The cultures were incubated in a 37° C., 5% CO2 incubator for 72 hrs. The medium was then removed, the cultures washed twice with phosphate buffered saline (PBS), fixed with absolute methanol for 10 min and stained with Hemacolor® reagents (Boehringer Mannheim), which stain cells in a manner similar to Giemsa, and may be used in a quantitative cell viability assay (see Keisari, Y. A colorimetric microtiter assay for the quantitation of cytokine activity on adherent cells in tissue culture. J. Immunol. Methods 146, 155-161, 1992). The degree of differentiation was determined by optical microscope. […]
smiles,measurement,setting,value
"CC=C(C)C=CC=C(C)C [monomeric alloocimene, 2,6-dimethyl-2,4,6-octatriene]",induction of neuronal differentiation (morphology),,showed no such effects
same,induction of neuronal differentiation (morphology),listed as monomeric allocimene,has no influence on the cells
